Results reported in patent US20120214862A1, “MODULATION OF FACTOR 7 EXPRESSION” (ISIS Pharmaceuticals, Inc., priority 2009, published 2012).
e = 2'-O-(2-methoxyethyl) (MOE); d = 2'-deoxy (DNA)

Key:
[1] = test system: intrinsic pathway of blood coagulation; assay: Activated Partial Thromboplastin Time (aPTT) in platelet poor plasma of treated mice, reported as INR; type: in vivo, mouse
Experimental: (§1) Prothrombin Time (PT) and Activated Partial Thromboplastin Time (aPTT) were measured using platelet poor plasma (PPP) from mice treated with ISIS 403102. PT and aPTT values provided in Table 20 are reported as International Normalized Ratio (INR) values. INR values for PT and aPTT were determined by dividing the PT or aPTT value for the experimental group by the PT or aPTT for the PBS treated group. This ratio was then raised to the power of the International Sensitivity Index (ISI) of the tissue factor used.
as §1, with “in Table 22 are reported” for “in Table 20 are reported”, “experimental group (i.e. 50 mg/kg treatment with ISIS 403102) by the” for “experimental group by the”
as §1, with “in Table 24 are reported” for “in Table 20 are reported”, “experimental group (i.e. 50 mg/kg treatment with ISIS 403102) by the” for “experimental group by the”

[2] = test system: extrinsic pathway of blood coagulation; assay: Prothrombin Time (PT) in platelet poor plasma of treated mice, reported as INR; type: in vivo, mouse
Experimental: as §1
as §1, with “in Table 22 are reported” for “in Table 20 are reported”, “experimental group (i.e. 50 mg/kg treatment with ISIS 403102) by the” for “experimental group by the”
as §1, with “in Table 24 are reported” for “in Table 20 are reported”, “experimental group (i.e. 50 mg/kg treatment with ISIS 403102) by the” for “experimental group by the”

[3] = BALB/c mice, 5 mg/kg s.c. twice a week for 3 weeks
[4] = BALB/c mice, 10 mg/kg s.c. twice a week for 3 weeks
[5] = BALB/c mice, 25 mg/kg s.c. twice a week for 3 weeks
[6] = BALB/c mice, 50 mg/kg s.c. twice a week for 3 weeks
[7] = BALB/c mice, 50 mg/kg, 1 dose, 1 day after last dose
[8] = BALB/c mice, 50 mg/kg, 1 dose, 3 days after last dose
[9] = BALB/c mice, 50 mg/kg, 2 doses, 3 days after last dose
[10] = BALB/c mice, 50 mg/kg, 4 doses, 3 days after last dose
[11] = BALB/c mice, 50 mg/kg, 6 doses, 2 days after last dose
[12] = BALB/c mice, 50 mg/kg, 6 doses, 7 days after last dose
[13] = BALB/c mice, 50 mg/kg, 6 doses, 14 days after last dose
[14] = BALB/c mice, 50 mg/kg, 6 doses, 28 days after last dose
[15] = BALB/c mice, 50 mg/kg, 6 doses, 42 days after last dose
[16] = BALB/c mice, 50 mg/kg, 6 doses, 56 days after last dose
[17] = BALB/c mice, single dose 50 mg/kg, day 1
[18] = BALB/c mice, single dose 50 mg/kg, day 2
[19] = BALB/c mice, single dose 50 mg/kg, day 3
[20] = BALB/c mice, single dose 50 mg/kg, day 4
[21] = BALB/c mice, single dose 50 mg/kg, day 6
[22] = BALB/c mice, single dose 50 mg/kg, day 8
[23] = BALB/c mice, single dose 50 mg/kg, day 12
[24] = BALB/c mice, single dose 50 mg/kg, day 24
[25] = BALB/c mice, single dose 50 mg/kg, day 56
[26] = Example 11, 5-50 mg/kg sc twice a week for 3 weeks
[27] = Example 13, 6 doses, day 7 to day 56

“CCATAGAACAGCTTCACAGG (sugars from the 5' end e5 d10 e5, backbone and methylation of C not given here) [ISIS 403102]” was tested, and the “aPTT INR” value [1, 3] was 1.05, the “aPTT INR” value [1, 4] was 1.04 and the “aPTT INR” value [1, 5] was 1.09. The “aPTT INR” value [1, 6] was 1.16, the “aPTT INR” value [1, 7] was 1.08 and the “aPTT INR” value [1, 8] was 1.10. For the same sequence, the “aPTT INR” value [1, 9] was 1.29, the “aPTT INR” value [1, 10] was 1.53 and the “aPTT INR” value [1, 11] was 1.62. For the same sequence, the “aPTT INR” value [1, 12] was 1.67, the “aPTT INR” value [1, 13] was 1.25 and the “aPTT INR” value [1, 14] was 0.90. For the same sequence, the “aPTT INR” value [1, 15] was 1.00, the “aPTT INR” value [1, 16] was 0.98 and the “aPTT INR” value [1, 17] was 1.00. For the same sequence, the “aPTT INR” value [1, 18] was 1.05, the “aPTT INR” value [1, 19] was 1.24 and the “aPTT INR” value [1, 20] was 1.15. For the same sequence, the “aPTT INR” value [1, 21] was 1.23, the “aPTT INR” value [1, 22] was 1.18 and the “aPTT INR” value [1, 23] was 1.18. The “aPTT INR” value [1, 24] was 1.02, the “aPTT INR” value [1, 25] was 0.97 and the “aPTT compared to the control” value [1, 26] was “slightly prolonged”. For the same sequence, the aPTT over time [1, 27] was “aPTT decreased”, the “aPTT INR” value ([1]; single dose 50 mg/kg, day 4) was 1.24 INR and the “aPTT INR” value ([1]; single dose 50 mg/kg, day 56) was 0.97 INR. For the same sequence, the “aPTT INR” value ([1]; single dose 50 mg/kg, starting value (day not given, day 1 implied)) was 1.00 INR, the “PT INR” value [2, 3] was 1.09 and the “PT INR” value [2, 4] was 1.33. The “PT INR” value [2, 5] was 2.33, the “PT INR” value [2, 6] was 4.37 and the “PT INR” value [2, 7] was 1.04. The “PT INR” value [2, 8] was 1.20, the “PT INR” value [2, 9] was 1.43 and the “PT INR” value [2, 10] was 2.13. The “PT INR” value [2, 11] was 1.64, the “PT INR” value [2, 12] was 2.08 and the “PT INR” value [2, 13] was 1.37. For the same sequence, the “PT INR” value [2, 14] was 0.96, the “PT INR” value [2, 15] was 1.00 and the “PT INR” value [2, 16] was 0.99. The “PT INR” value [2, 17] was 1.11, the “PT INR” value [2, 18] was 1.64 and the “PT INR” value [2, 19] was 1.81. The “PT INR” value [2, 20] was 1.97, the “PT INR” value [2, 21] was 1.59 and the “PT INR” value [2, 22] was 1.55. For the same sequence, the “PT INR” value [2, 23] was 1.30, the “PT INR” value [2, 24] was 1.12 and the “PT INR” value [2, 25] was 1.10. The “PT compared to the control” value [2, 26] was “significantly prolonged”, the PT over time [2, 27] was “PT decreased” and the “PT INR” value ([2]; single dose 50 mg/kg, day 1) was 1.11 INR. For the same sequence, the “PT INR” value ([2]; single dose 50 mg/kg, day 4) was 1.97 INR and the “PT INR” value ([2]; single dose 50 mg/kg, day 56) was 1.10 INR.
